Measurements taken from US6693189B2, “Materials and method for treating or preventing pathogenic fungal infection” (Ariad Gene Therapeutics, Inc., priority 1996, dated 2004).
Like-named read-outs stand apart in the source and are kept apart here.

How the values were obtained:
human FKBP12 = human FKBP12 (Homo sapiens, UniProt P62942); assay: competitive fluorescence polarization (FP) FKBP binding assay; conditions: for fold loss in affinity (vs rapamycin) / fold loss in affinity (cf rapamycin): =IC50/IC50 of rapamycin; for fold loss in affinity (vs rapamycin): C24 oximes; for fold loss in affinity (cf rapamycin): C7 rapalogs
Sequence of human FKBP12 (P62942 whole entry): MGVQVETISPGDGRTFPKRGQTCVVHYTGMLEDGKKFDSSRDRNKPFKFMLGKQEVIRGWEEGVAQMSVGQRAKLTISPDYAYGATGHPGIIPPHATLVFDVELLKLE
Experimental: Serial 10-fold dilutions of each analog were prepared in 100% ethanol in glass vials and stored on ice. All other manipulations were performed at room temperature. […] Finally, a probe solution was prepared containing 10 nM AP1491 in 0.1% ethanol/FP buffer, and 100 μl added to each well with mixing.
The plates were stored covered in the dark for approximately 30 min to permit equilibration and then the fluorescence polarization of the sample in each well read on a Jolley FPM-2 FP plate reader (Jolley Consulting and Research, Inc., Grayslake, Ill.) in accordance with the manufacturer's recommendations. The mean polarization (mP units) for each competitor concentration was usually converted to % total binding by reference to the control values and plotted (y) vs. log molar final concentration of competitor (x). Non-linear least square analysis was used to fit the curve and extract the IC50 using the following equation:
y=M1+(M4−M1)/(1+exp(M2*(M3−x)))
where M3 is the IC50. For incomplete curves the IC50 was determined by interpolation.

[1] = tested on: Candida albicans clinical isolates; assay: broth macrodilution antifungal assay, C. albicans; type: cell-based; conditions: ratio of relative antifungal to relative immunosuppressive activity
[2] = tested on: Cryptococcus neoformans clinical isolates; assay: broth macrodilution antifungal assay, Cryptococcus neoformans; type: cell-based; conditions: ratio of relative antifungal to relative immunosuppressive activity
[3] = tested on: Aspergillus fumigatus clinical isolates; assay: broth macrodilution antifungal assay, Aspergillus fumigatus; type: cell-based; conditions: III = Asp fumigatus; ratio of relative antifungal to relative immunosuppressive activity
[4] = read-out: FKBP wt FP binding assay IC50, rapamycin C24 oximes, competition with fluoresceinated FK506 probe AP1491

| SMILES | fold loss in affinity (vs rapamycin) (human FKBP12) | IC50 (human FKBP12; [4]) | fold loss in affinity (cf rapamycin) (human FKBP12) | also measured |
| --- | --- | --- | --- | --- |
| CCON=C1CC(C(C)CC2CCC(O)C(OC)C2)OC(=O)C2CCCCN2C(=O)C(=O)C2(O)OC(CCC2C)CC(OC)C(C)=CC=CC=CC(C)CC(C)C(=O)C(OC)C(O)C(C)=CC1C (stereo not drawn) [Compound 7, Rapamycin (E and Z)-24-(O-ethyloxime)] | 1287 | 2.96 µM |  |  |
| CO[C@H]1C[C@@H]2CC[C@@H](C)[C@@](O)(O2)C(=O)C(=O)N2CCCC[C@H]2C(=O)O[C@H]([C@H](C)C[C@@H]2CC[C@@H](O)[C@H](OC)C2)C/C(=N/OCc2ccccc2)[C@H](C)/C=C(\C)[C@@H](O)[C@@H](OC)C(=O)[C@H](C)C[C@H](C)/C=C/C=C/C=C/1C [Compound 11, Rapamycin (E and Z)-24-(O-benzyloxime)] | 3627 |  |  | IC50 (human FKBP12): 8.34 µM |
| COC1CC2CCC(C)C(O)(O2)C(=O)C(=O)N2CCCCC2C(=O)OC(C(C)CC2CCC(O)C(OC)C2)CC(=NOCc2ccccc2)C(C)C=C(C)C(O)C(OC)C(=O)C(C)CC(C)C=CC=CC=C1C (stereo not drawn) [Compound 12, Rapamycin (E and Z)-24-(O-benzyloxime)] | 616 | 1.42 µM |  |  |
| COC1CC2CCC(C)C(O)(O2)C(=O)C(=O)N2CCCCC2C(=O)OC(C(C)CC2CCC(O)C(OC)C2)CC(=NOC(C)(C)C)C(C)C=C(C)C(O)C(OC)C(=O)C(C)CC(C)C=CC=CC=C1C (stereo not drawn) [Compound 19] | >13043 | > 30 µM |  |  |
| CCOC1C[C@@H]2CC[C@@H](C)[C@@](O)(O2)C(=O)C(=O)N2CCCC[C@H]2C(=O)O[C@H]([C@H](C)C[C@@H]2CC[C@@H](O)[C@H](OC)C2)CC(=O)[C@H](C)/C=C(\C)[C@@H](O)[C@@H](OC)C(=O)[C@H](C)C[C@H](C)/C=C/C=C/C=C/1C (stereo partly drawn) [Compound 27] |  |  | 1.1 |  |
| CCOC1C[C@@H]2CC[C@@H](C)[C@@](O)(O2)C(=O)C(=O)N2CCCC[C@H]2C(=O)O[C@H]([C@H](C)C[C@@H]2CC[C@@H](O)[C@H](OC)C2)CC(=O)[C@H](C)/C=C(\C)[C@@H](O)[C@@H](OC)C(=O)[C@H](C)C[C@H](C)/C=C/C=C/C=C/1C (stereo partly drawn) [Compound 28] |  |  | 1.6 |  |
| COC1CC(CC(C)C2CC(=O)C(C)C=C(C)C(O)C(OC)C(=O)C(C)CC(C)C=CC=CC=C(C)C(c3ccc(C)s3)CC3CCC(C)C(O)(O3)C(=O)C(=O)N3CCCCC3C(=O)O2)CCC1O (stereo not drawn) [Compound 36] |  |  | 1.6 |  |
| COC1CC(CC(C)C2CC(=O)C(C)C=C(C)C(O)C(OC)C(=O)C(C)CC(C)C=CC=CC=C(C)C(c3ccc(C)s3)CC3CCC(C)C(O)(O3)C(=O)C(=O)N3CCCCC3C(=O)O2)CCC1O (stereo not drawn) [Compound 37] |  |  | 1.9 |  |
| CO[C@H]1C[C@@H]2CC[C@@H](C)[C@@](O)(O2)C(=O)C(=O)N2CCCC[C@H]2C(=O)O[C@H]([C@H](C)C[C@@H]2CC[C@@H](O)[C@H](OC)C2)CC(=O)[C@H](C)/C=C(\C)[C@@H](O)[C@@H](OC)C(=O)[C@H](C)C[C@H](C)/C=C/C=C/C=C/1C [rapamycin, Rapamycin] |  |  |  | AF/IS I [1]: 1; AF/IS II [2]: 1; AF/IS III [3]: 1 |
